Columns and labels:
Assay in all cases: Inhibitor Assay
Settings in all cases: 30 °C
[1] = biological target: T1, Tyrosine-protein phosphatase non-receptor type 1 (Homo sapiens, UniProt P18031)
T1 sequence (P18031 whole entry): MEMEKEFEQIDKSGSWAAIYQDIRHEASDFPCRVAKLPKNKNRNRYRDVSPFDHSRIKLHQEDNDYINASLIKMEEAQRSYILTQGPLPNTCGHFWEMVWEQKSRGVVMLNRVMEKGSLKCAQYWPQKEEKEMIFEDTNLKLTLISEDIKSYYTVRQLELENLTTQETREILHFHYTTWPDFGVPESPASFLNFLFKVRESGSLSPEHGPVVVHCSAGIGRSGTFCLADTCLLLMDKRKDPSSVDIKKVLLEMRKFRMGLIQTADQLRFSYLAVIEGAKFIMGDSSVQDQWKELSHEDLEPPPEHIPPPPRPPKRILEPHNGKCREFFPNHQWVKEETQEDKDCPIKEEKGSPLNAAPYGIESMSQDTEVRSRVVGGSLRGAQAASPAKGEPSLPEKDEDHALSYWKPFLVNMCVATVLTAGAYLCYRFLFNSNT
Experimental: The assay mixture ([…]) containing 50 mM MOPS (pH 6.5), 2 mM pNPP and PTP1B were monitored at 405 nm for 2 min at 30 C.

[2] = biological target: Receptor-type tyrosine-protein phosphatase F (Homo sapiens, UniProt P10586)
[3] = biological target: T2, Tyrosine-protein phosphatase non-receptor type 11 (Homo sapiens, UniProt Q06124)
T2 sequence (Q06124 whole entry): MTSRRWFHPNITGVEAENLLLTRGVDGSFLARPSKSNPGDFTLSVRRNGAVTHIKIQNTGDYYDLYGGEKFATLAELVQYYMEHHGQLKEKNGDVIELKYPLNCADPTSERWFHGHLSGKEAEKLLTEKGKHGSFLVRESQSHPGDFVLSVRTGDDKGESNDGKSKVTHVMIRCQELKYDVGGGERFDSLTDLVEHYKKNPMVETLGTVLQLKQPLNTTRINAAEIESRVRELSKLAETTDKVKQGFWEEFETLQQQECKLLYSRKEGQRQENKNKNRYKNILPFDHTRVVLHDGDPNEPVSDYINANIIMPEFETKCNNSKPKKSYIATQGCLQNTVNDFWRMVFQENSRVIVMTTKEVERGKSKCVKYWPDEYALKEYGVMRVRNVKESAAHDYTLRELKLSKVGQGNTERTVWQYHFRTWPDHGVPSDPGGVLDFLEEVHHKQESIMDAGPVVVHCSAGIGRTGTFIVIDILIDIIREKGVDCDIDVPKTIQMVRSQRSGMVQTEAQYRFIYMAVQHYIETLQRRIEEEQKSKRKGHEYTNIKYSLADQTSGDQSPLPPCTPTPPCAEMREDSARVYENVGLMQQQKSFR

[4] = biological target: T3, Tyrosine-protein phosphatase non-receptor type 2 (Homo sapiens, UniProt P17706)
T3 sequence (P17706 whole entry): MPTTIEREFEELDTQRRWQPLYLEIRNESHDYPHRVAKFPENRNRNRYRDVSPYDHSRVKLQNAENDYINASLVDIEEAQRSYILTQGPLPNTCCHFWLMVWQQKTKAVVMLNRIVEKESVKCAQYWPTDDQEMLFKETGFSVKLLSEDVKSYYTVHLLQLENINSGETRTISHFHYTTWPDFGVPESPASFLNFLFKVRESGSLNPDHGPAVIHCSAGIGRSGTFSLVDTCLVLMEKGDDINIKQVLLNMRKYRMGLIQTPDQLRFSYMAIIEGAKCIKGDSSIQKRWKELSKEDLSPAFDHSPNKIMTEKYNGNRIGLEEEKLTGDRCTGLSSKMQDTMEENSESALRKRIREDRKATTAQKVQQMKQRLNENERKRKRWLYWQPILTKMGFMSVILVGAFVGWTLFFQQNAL

[5] = biological target: Tyrosine-protein phosphatase non-receptor type 6 (Homo sapiens, UniProt P29350)
Chain of Tyrosine-protein phosphatase non-receptor type 6 (P29350 whole entry): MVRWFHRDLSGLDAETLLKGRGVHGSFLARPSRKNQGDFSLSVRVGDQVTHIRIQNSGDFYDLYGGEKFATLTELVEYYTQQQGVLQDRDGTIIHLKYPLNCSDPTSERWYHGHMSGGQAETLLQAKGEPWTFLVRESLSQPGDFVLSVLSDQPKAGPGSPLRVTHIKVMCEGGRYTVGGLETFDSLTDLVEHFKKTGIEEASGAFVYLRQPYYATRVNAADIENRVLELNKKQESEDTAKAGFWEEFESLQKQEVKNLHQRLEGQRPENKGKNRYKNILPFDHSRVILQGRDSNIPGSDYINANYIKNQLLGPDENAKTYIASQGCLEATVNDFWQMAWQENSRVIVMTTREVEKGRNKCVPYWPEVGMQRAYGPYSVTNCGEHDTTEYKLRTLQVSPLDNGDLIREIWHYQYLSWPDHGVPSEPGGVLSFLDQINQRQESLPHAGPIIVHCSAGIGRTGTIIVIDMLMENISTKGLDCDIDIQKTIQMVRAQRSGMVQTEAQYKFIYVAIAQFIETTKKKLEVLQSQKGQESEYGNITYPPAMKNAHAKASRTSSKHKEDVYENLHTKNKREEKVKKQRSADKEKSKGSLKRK

Chain of Receptor-type tyrosine-protein phosphatase F (P10586 whole entry): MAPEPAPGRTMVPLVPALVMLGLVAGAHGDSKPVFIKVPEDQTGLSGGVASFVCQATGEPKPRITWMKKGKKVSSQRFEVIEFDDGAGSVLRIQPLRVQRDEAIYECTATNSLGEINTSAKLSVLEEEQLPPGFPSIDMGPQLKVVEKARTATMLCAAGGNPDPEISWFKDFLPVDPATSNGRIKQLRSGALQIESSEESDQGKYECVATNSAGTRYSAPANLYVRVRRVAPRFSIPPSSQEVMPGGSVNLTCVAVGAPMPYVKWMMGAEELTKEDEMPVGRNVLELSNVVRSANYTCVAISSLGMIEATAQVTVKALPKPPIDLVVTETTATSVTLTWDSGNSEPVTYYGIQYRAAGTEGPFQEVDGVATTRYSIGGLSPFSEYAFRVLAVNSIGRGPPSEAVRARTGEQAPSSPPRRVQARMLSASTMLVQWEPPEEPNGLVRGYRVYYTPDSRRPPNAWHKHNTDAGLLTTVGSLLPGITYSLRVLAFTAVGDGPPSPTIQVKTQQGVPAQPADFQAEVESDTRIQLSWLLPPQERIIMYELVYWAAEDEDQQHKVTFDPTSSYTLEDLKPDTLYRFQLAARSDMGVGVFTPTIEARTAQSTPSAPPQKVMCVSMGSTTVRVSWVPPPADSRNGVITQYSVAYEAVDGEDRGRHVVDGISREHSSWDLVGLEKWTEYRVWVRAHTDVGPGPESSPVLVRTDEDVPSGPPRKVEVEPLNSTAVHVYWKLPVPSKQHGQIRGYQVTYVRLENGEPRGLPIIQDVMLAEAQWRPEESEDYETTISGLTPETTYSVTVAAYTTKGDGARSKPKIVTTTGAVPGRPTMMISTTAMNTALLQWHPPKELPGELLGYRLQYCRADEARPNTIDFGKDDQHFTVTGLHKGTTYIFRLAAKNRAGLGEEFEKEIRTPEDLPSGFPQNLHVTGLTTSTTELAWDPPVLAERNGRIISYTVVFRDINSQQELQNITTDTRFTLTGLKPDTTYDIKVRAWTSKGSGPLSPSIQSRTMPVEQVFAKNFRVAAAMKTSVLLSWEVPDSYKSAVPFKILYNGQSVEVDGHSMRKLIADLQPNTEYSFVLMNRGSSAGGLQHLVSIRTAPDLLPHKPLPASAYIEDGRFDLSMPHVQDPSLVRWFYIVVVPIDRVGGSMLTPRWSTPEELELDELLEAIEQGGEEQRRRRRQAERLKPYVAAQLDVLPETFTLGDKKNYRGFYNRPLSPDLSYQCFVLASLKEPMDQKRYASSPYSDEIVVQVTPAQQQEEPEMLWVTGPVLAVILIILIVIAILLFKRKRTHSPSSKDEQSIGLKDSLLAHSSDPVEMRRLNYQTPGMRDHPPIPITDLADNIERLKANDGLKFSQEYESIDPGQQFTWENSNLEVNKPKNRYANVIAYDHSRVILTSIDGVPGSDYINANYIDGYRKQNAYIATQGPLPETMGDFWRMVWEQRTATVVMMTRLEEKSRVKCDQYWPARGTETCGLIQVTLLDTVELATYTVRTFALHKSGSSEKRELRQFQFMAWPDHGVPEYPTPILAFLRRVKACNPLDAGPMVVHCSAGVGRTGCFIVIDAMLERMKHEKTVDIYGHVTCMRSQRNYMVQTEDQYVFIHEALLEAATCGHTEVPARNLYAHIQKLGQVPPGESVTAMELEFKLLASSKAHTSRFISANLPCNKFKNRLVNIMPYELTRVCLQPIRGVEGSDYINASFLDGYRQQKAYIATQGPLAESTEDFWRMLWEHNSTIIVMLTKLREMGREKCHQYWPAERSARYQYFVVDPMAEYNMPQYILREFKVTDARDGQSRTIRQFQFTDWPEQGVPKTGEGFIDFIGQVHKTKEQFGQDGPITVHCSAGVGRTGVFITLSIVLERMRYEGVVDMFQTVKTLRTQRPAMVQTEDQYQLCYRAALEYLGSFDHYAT

IC50 [1] [µM]	Compound	also measured
12.3	COC(=O)C(=O)c1ccc(-n2cc(CO[C@H]3O[C@H](COCc4ccccc4)[C@@H](OCc4ccccc4)[C@H](OCc4ccccc4)[C@H]3OCc3ccccc3)nn2)cc1 [1-(4-(2-Methoxy-2-oxoacetyl)phenyl)-1H-1,2,3-triazol-4-ylmethyl 2,3,4,6-tetra-O-benzyl-a-D-glucopyranoside (17)]	
> 100	CO[C@H]1O[C@H](COCc2cn(-c3ccc(C(C)=O)cc3)nn2)[C@@H](OCc2ccccc2)[C@H](OCc2ccccc2)[C@H]1OCc1ccccc1 [Methyl 2,3,4-tri-O-benzyl-6-O-[1-(4-acetylphenyl)-1H-1,2,3-triazol-4-ylmethyl] a-D-glucopyranoside (10)]	
> 100	CC(=O)c1ccc(-n2cc(CO[C@H]3O[C@H](COCc4ccccc4)[C@@H](OCc4ccccc4)[C@H](OCc4ccccc4)[C@H]3OCc3ccccc3)nn2)cc1 [1-(4-Acetylphenyl)-1H-1,2,3-triazol-4-ylmethyl 2,3,4,6-tetra-O-benzyl a-D-glucopyranoside (11)]	
5.6	O=C(O)C(=O)c1ccc(-n2cc(CO[C@H]3O[C@H](COCc4ccccc4)[C@@H](OCc4ccccc4)[C@H](OCc4ccccc4)[C@H]3OCc3ccccc3)nn2)cc1 [1-(4-(Carboxycarbonyl)phenyl)-1H-1,2,3-triazol-4-ylmethyl 2,3,4,6-tetra-O-benzyl a-D-glucopyranoside (19)]	IC50 [2]: > 100 µM; IC50 [3]: 55.4 µM; IC50 [4]: 6.4 µM; IC50 [5]: > 100 µM
3.2	CO[C@H]1O[C@H](COCc2cn(-c3ccc(C(=O)C(=O)O)cc3)nn2)[C@@H](OCc2ccccc2)[C@H](OCc2ccccc2)[C@H]1OCc1ccccc1 [Methyl 2,3,4-tri-O-benzyl-6-O-[1-(4-(carboxycarbonyl)phenyl)-1H-1,2,3-triazol-4-ylmethyl] a-D-glucopyranoside (15)]	IC50 [2]: > 100 µM; IC50 [3]: > 100 µM; IC50 [4]: 14.5 µM; IC50 [5]: > 100 µM

More lines, now with the values behind:

Compound	IC50 [1] [µM]	also measured
CO[C@H]1O[C@H](COCc2cn(-c3ccc(C(=O)O)cc3)nn2)[C@@H](OCc2ccccc2)[C@H](OCc2ccccc2)[C@H]1OCc1ccccc1 [Methyl 2,3,4-tri-O-benzyl-6-O-[1-(4-carboxyphenyl)-1H-1,2,3-triazol-4-ylmethyl] a-D-glucopyranoside (14)]	> 100	
O=C(O)c1ccc(-n2cc(CO[C@H]3O[C@H](COCc4ccccc4)[C@@H](OCc4ccccc4)[C@H](OCc4ccccc4)[C@H]3OCc3ccccc3)nn2)cc1 [1-(4-Carboxyphenyl)-1H-1,2,3-triazol-4-ylmethyl 2,3,4,6-tetra-O-benzyl a-D-glucopyranoside (18)]	11.1	
[N-]=[N+]=Nc1ccc(C(=O)C(=O)O)cc1 [1-[4-(carboxycarbonyl)phenyl]triaz-2-yn-2-ium-1-ide (7)]	30.2	
COC(=O)c1ccc(-n2cc(COC[C@H]3O[C@H](OC)[C@H](OCc4ccccc4)[C@@H](OCc4ccccc4)[C@@H]3OCc3ccccc3)nn2)cc1 [Methyl 2,3,4-tri-O-benzyl-6-O-[1-(4-(methoxycarbonyl)-phenyl)-1H-1,2,3-triazol-4-ylmethyl] a-D-glucopyranoside (12)]	> 100	
COC(=O)c1ccc(-n2cc(CO[C@H]3O[C@H](COCc4ccccc4)[C@@H](OCc4ccccc4)[C@H](OCc4ccccc4)[C@H]3OCc3ccccc3)nn2)cc1 [1-(4-(Methoxycarbonyl)phenyl)-1H-1,2,3-triazol-4-ylmethyl 2,3,4,6-tetra-O-benzyl a-D-glucopyranoside (16)]	> 100	
COC(=O)C(=O)c1ccc(-n2cc(COC[C@H]3O[C@H](OC)[C@H](OCc4ccccc4)[C@@H](OCc4ccccc4)[C@@H]3OCc3ccccc3)nn2)cc1 [Methyl 2,3,4-tri-O-benzyl-6-O-[1-(4-(2-methoxy-2-oxoacetyl)phenyl)-1H-1,2,3-triazol-4-ylmethyl] a-D-glucopyranoside (13)]	12.7	
